The subject of assay [1] is Chaetomium globosum wildtype strain (CG). In words: Fungal growth on MEA plates with furanone. Format: cell-based. Set-up: key to growth on plate, CG: −: No growth was observed; +: normal growth was seen. To be noted: for growth on plate, CG: 60 μg/mL, 7 days at 30° C.; for growth inhibition test, inhibitory concentration, CG: tested at 1, 5, 30, 60 μg/mL, 7 days. The method, then:
(§1) This Example examines the effect of brominated furanones on the growth of fungi associated with damage to building material. Six fungal strains were the subject of these experiments; Gloeophyllum trabeum (strains GT598 and GT599), Chaetomium globosum (wildtype strain and CG572), and Trametes versicolor (strains TV7B2-59 and TV57MAD277). The species were developed on 2% Malt-Extract Agar (MEA) plates and stored inverted at 4° C. The stocks were refreshed by streaking new plates every two months.
(§2) The brominated and non-brominated furanones were added to MAE agar plates at different concentrations. The brominated furanones were dissolved in either ethanol (“EtOH”) or methanol (“MeOH”) as stock solutions, as shown in Table 5. The non-brominated furanones were purchased from Sigma (St. Louis, Mo.). The furanone stocks were stored at 4° C.
(§3) MAE agar plates containing the same amounts of ethanol/methanol were also prepared as negative controls to eliminate any solvent effects. The plates were prepared using either 90 mm or 60 mm petri dishes and were stored inverted at 4° C. until use.
(§4) Different concentrations of furanones were studied to compare their antifungal activities. The plates were inoculated with the six fungal strains using a platinum loop and were incubated upside down at 30° C. for 7 days to monitor the growth. The initial screening was performed using a single 60 μg/mL furanone concentration.

The test system of assay [2] is Gloeophyllum trabeum strain GT598. In words: Fungal growth on MEA plates with furanone. It counts as cell-based. To be noted: for growth on plate, GT598: 60 μg/mL, 7 days at 30° C.; for growth inhibition test, inhibitory concentration, GT598: tested at 1, 5, 30, 60 μg/mL, 7 days. Set-up: key to growth on plate, GT598: −: No growth was observed; +: normal growth was seen. The method, then:
as §1, §2, §3, §4

The subject of assay [3] is Candida albicans strain SC5341. Description: C. albicans growth curves in SD medium with furanones (96-well plates, OD600). It counts as cell-based. The settings on record: tested 2.5, 5, 10, 20 μg/mL. How it is done: To evaluate the effects of furanones on fungal growth, C. albicans was grown in a synthetic dextrose (“SD”) medium supplemented with 0, 2.5, 5, 10, or 20 μg/mL of one of eight different brominated furanones and […] furanones (BF1, BF8, BF9, BF11, BF12, BF14, NF1, NF2, or NF3).
The Candida albicans strain SC5341 used in this study was provided by Dr. Sean Palecek from the University of Wisconsin-Madison. C. albicans was routinely grown overnight at 30° C. and shaken at 200 rpm in a SD medium containing 0.67% (wt/vol) yeast nitrogen base without amino acids and 2% (wt/vol) dextrose, which was buffered with 0.165 M morpholinepropanesulfonic acid (MOPS, Sigma), and pH-adjusted to 7.0 with solid NaOH. The overnight culture was then sub-cultured in 25 mL of fresh SD medium to an initial optical density at 600 nm (OD600) of 0.005 and grown till the OD600 reached 1.0. The OD600 values were measured using a Spectronic GENESYS 5 UV-Vis spectrophotometer (Thermo Fisher Scientific®, Waltham, Mass.). This culture was used to inoculate sterile 96-well plates (Costar® No. 9017, Corning®, Corning, N.Y.) containing SD medium supplemented with furanones at different concentrations (0, 2.5, 5, 10, 20 μg/mL) to an OD600 of 0.06 in at least duplicates. The BF1, 8, 9, 11, 12, 14 and NF1-3 compounds were dissolved in ethanol at a concentration of 20 mg/mL. The BF10 compound was dissolved in methanol at a concentration of 20 mg/mL. The amounts of methanol and ethanol were adjusted to be the same for each sample to eliminate the effects of solvents. The samples were then incubated at 30° C. with shaking at 200 rpm, and the OD600 in each well was measured at 0, 4, 7, 17, and 42 hours after inoculation, using an ELx808™ Absorbance Microplate Reader (BioTek Instruments® Inc., Winooski, Vt.).

Assay [4] has as its system Trametes versicolor strain TV7B2-59. Description: Fungal growth on MEA plates with furanone. Format: cell-based. Set-up: key to growth on plate, TV7B2-59: −: No growth was observed; +: normal growth was seen. The settings on record: for growth on plate, TV7B2-59: 60 μg/mL, 7 days at 30° C.; for growth inhibition test, inhibitory concentration, TV7B2-59: tested at 1, 5, 30, 60 μg/mL, 7 days. The method, then: as §1, §2, §3, §4

In assay [5] the test system is Chaetomium globosum CG572. In words: Fungal growth on MEA plates with furanone. It counts as cell-based. Further details: key to growth on plate, CG572: −: No growth was observed; +: normal growth was seen. To be noted: for growth on plate, CG572: 60 μg/mL, 7 days at 30° C.; for growth inhibition test, inhibitory concentration, CG572: tested at 1, 5, 30, 60 μg/mL, 7 days. The method, then: as §1, §2, §3, §4

The subject of assay [6] is P. aeruginosa strain PAO1. Description: Microplate based planktonic growth assay of P. aeruginosa. Format: cell-based, Pseudomonas aeruginosa. To be noted: for reduction of specific growth rate compared to furanone-free control: planktonic growth. How it is done: The antimicrobial activities of furanones on the planktonic growth of P. aeruginosa strain PAO1 was examined using a microplate based growth assay. An overnight culture of the strain grown in LB medium at 30° C. was used to inoculate M63 minimal medium supplemented with furanones at 0, 30 or 60 μg/mL to an optical density at 600 nm (OD600) of 0.05 in 96-well plates. The plates were then incubated at 30° C. with shaking at 200 rpm. The reading of OD600 was measured every 60 minutes for six hours using a microplate reader (ELx808, BioTek Instruments). Six replicates were tested for every sample. The synthesis of the brominated furanones, the structures of which are shown in FIGS. 1A and 1B, was according to Example 1.

For assay [7], the system named is P. aeruginosa strain PAO1 biofilm formation. In words: Microplate-based biofilm assay (crystal violet, OD540) of P. aeruginosa. The settings on record: 24 hours. Format: cell-based, Pseudomonas aeruginosa. How it is done:
A microplate-based biofilm assay was used to further investigate whether furanones inhibit biofilm formation of P. aeruginosa strain PAO1. For this biofilm assay the strain was grown at 30° C. without shaking in M63 minimal medium containing 13.6 g/L KH2PO4, 2 g/L (NH4)2SO4, 0.5 mg/L FeSO4, 0.12 g/L MgSO4, 5 g/L vitamin free casamino acids and 5 g/L glucose (pH 7.0). The synthesis of the brominated furanones, the structures of which are shown in FIGS. 1A and 1B, was according to Example 1.
The overnight culture of P. aeruginosa was used to inoculate fresh M63 medium supplemented with furanones (0, 30 or 60 μg/mL) to an OD600 of 0.05 in 96-well plates. Four replicates were tested for each condition. The plates were incubated at 30° C. without shaking for 24 hours. The biofilm mass was quantified by following the protocol described previously. Briefly, the planktonic cells were carefully removed by pipetting and the plates with biofilms were washed three times with deionized H2O and dried by gently patting on a piece of paper towel. To quantify biofilms, the plates were stained with 0.1% crystal violet and incubated for 20 minutes at room temperature. The plates were then washed three times with deionized H2O to remove extra dyes. An OD540 was measured to quantify the biofilm on the bottom of each well.

Molecules are shown by their SMILES. “Also recorded” adds a separate entry of the source.

By inhibition is commonly meant the change of the read-out against control, counted positive when it falls.

`CCCCC1=C(Br)/C(=C/Br)OC1=O` [BF1, 4-bromo-5Z-(bromomethylene)-3-butylfuran-2-one]: in assay [1], the “growth on plate, CG” value was “−” and the “growth inhibition test, inhibitory concentration, CG” value is 30 µg/mL. Besides, in assay [2], the “growth on plate, GT598” value is recorded as “−” and the “growth inhibition test, inhibitory concentration, GT598” value (“growth inhibition test … GT598” below) worked out at 30 µg/mL. Also, the “lowest concentration showing growth inhibition” value in assay [3] was 20 µg/mL. Further, in assay [4], the “growth on plate, TV7B2-59” value is “−” and the “growth inhibition test, inhibitory concentration, TV7B2-59” value (from here on “growth inhibition test … TV7B2-59”) was determined as 5 µg/mL. Besides, in assay [5], the “growth on plate, CG572” value was “−” and the “growth inhibition test, inhibitory concentration, CG572” value (from here on “growth inhibition test … CG572”) worked out at 30 µg/mL.
Regarding `CC1=C(Br)/C(=C/Br)OC1=O` [BF8, 4-bromo-5Z-(bromomethylene)-3-methylfuran-2-one], the “inhibitory effect on planktonic growth” value in assay [6] (30 μg/mL) is reported as “did not exhibit significant inhibitory effects”. Further, in assay [6] (30 and 60 μg/mL (up to 60 μg/mL)), the “inhibitory effect on planktonic growth” value is “did not inhibit; also recorded: no apparent effect”. Besides, in assay [1], the “growth on plate, CG” value is on record as “−” and the “growth inhibition test, inhibitory concentration, CG” value amounted to 5 µg/mL. Moreover, in assay [2], the “growth on plate, GT598” value is listed as “−” and the “growth inhibition test … GT598” value is 5 µg/mL. For the same molecule, the “lowest concentration showing growth inhibition” value in assay [3] worked out at 5 µg/mL. Moreover, the “inhibition of biofilm formation” value in assay [7] (30 μg/mL) is “significantly inhibited”. Further, the “inhibition of biofilm formation” value in assay [7] (60 μg/mL) is recorded as “significantly inhibited”. Also, the inhibition at 30 µg/mL in assay [7] (Pseudomonas aeruginosa, PAO1, 30 μg/mL, read-out: inhibition of biofilm formation compared to 24-hour biofilm mass of furanone-free control) came out at 86.1 ± 7.6%. The inhibition at 60 µg/mL in assay [7] (Pseudomonas aeruginosa, PAO1, 60 μg/mL, read-out: inhibition of biofilm formation compared to 24-hour biofilm mass of furanone-free control) amounted to 93.8 ± 3.7%. Besides, in assay [4], the “growth on plate, TV7B2-59” value is reported as “−” and the “growth inhibition test … TV7B2-59” value came to 30 µg/mL. In assay [5], the “growth on plate, CG572” value is given as “−” and the “growth inhibition test … CG572” value came out at 30 µg/mL.
In the case of `CC1=CC(=C(Br)Br)OC1=O` [BF9, 5-(dibromomethylene)-3-methylfuran-2-one], the “reduction of specific growth rate compared to furanone-free control” value (shortened to “reduction … to furanone-free control”) in assay [6] (30 μg/mL) is on record as 29.3%. The “reduction … to furanone-free control” value in assay [6] (60 μg/mL) was determined as 42.7%. In assay [1], the “growth on plate, CG” value is listed as “−” and the “growth inhibition test, inhibitory concentration, CG” value amounted to 5 µg/mL. In addition, in assay [2], the “growth on plate, GT598” value is listed as “−” and the “growth inhibition test … GT598” value was 60 µg/mL. Also, the “lowest concentration showing growth inhibition” value in assay [3] was 20 µg/mL. Further, in assay [7] (30 μg/mL), the “inhibition of biofilm formation” value is recorded as “significantly inhibited”. For the same molecule, in assay [7] (60 μg/mL), the “inhibition of biofilm formation” value is “significantly inhibited”. In addition, in assay [4], the “growth on plate, TV7B2-59” value is given as “−” and the “growth inhibition test … TV7B2-59” value was 5 µg/mL. Besides, in assay [5], the “growth on plate, CG572” value was “−” and the “growth inhibition test … CG572” value turned out to be 60 µg/mL.
In the case of `O=C1OC(=C(Br)Br)C=C1C(Br)Br` [BF10, 3-(dibromomethyl)-5-(dibromomethylene)furan-2-one], the “inhibitory effect on planktonic growth” value in assay [6] (30 μg/mL) is “did not exhibit significant inhibitory effects”. The “reduction … to furanone-free control” value in assay [6] (60 μg/mL) was found to be 10%. For the same molecule, in assay [1], the “growth on plate, CG” value was “−” and the “growth inhibition test, inhibitory concentration, CG” value came out at 30 µg/mL. In assay [2], the “growth on plate, GT598” value was “−” and the “growth inhibition test … GT598” value was determined as 30 µg/mL. The “lowest concentration showing growth inhibition” value in assay [3] amounted to 20 µg/mL. The “inhibition of biofilm formation” value in assay [7] (30 μg/mL) is listed as “didn't show apparent inhibition”. Also, in assay [7] (60 μg/mL), the “inhibition of biofilm formation” value is listed as “significantly inhibited; also recorded: inhibited biofilm formation completely”. In assay [4], the “growth on plate, TV7B2-59” value is reported as “−” and the “growth inhibition test … TV7B2-59” value amounted to 30 µg/mL. In assay [5], the “growth on plate, CG572” value is given as “−” and the “growth inhibition test … CG572” value worked out at 30 µg/mL.

Source of the values: patent publication US8530680B2, “System and method for controlling growth of microorganisms with brominated furanones” (Syracuse University, priority 2008, dated 2013).
